Laboratory results from US20250249012A1, “COMPOSITIONS AND METHODS FOR TREATING AND/OR PREVENTING A VIRAL INFECTION” (priority 2022, published 2025).
Where a name gives a salt, the structure may show the parent alone.

System: SARS-CoV-2 beta variant
Assay: […]; lung PCR and histopathology
Format: in vivo, BALB C mice

Compound	antiviral effect upon sole administration (Nafamostat mesylate alone)	antiviral effect of single drug (mouse, in vivo)	reduction of infection (PCR) by single drug (mouse, in vivo)	antiviral effect upon sole administration (Apilimod dimesylate alone)
N=C(N)c1ccc2cc(OC(=O)c3ccc(N=C(N)N)cc3)ccc2c1 [Nafamostat mesylate]	partial antiviral inhibitory effect	no effect	5-10 fold	–
N-[(E)-(3-methylphenyl)methylidencamino]-6-morpholin-4-yl-2-(2-pyridin-2-ylethoxy)pyrimidin-4-amine [Apilimod dimesylate]	–	no antiviral effect	–	lack of antiviral effect
